# In patent US9561231B2 (AbbVie Inc., priority 2012, dated 2017):
# Columns and labels:
# [1] = target: T1, second (BD2: amino acids E352-E168) bromodomain of BRD4 (Homo sapiens, UniProt O60885); assay: TR-FRET bromodomain binding assay, BRD4 BD2; settings: TR-FRET assay protocol (A-G, compound concentration range); Ki calculated from IC50, probe Kd and probe concentration; read-out: TR-FRET Binding Ki: BRD4 (BDII_E352-M457)
# T1 construct: protocol
# How it was run: (§1)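 Displacement of Alexa647-labeled BET-inhibitor probe from His-tagged bromodomain, TR-FRET read-out; buffer 20 mM Na phosphate pH 6.0, 50 mM NaCl, 0.01% Triton X-100. IC50 by 4PL fit; Ki calculated from IC50, probe Kd and probe concentration.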
# [2] = target: T2, first (BD1: amino acids K57-E168) bromodomain of BRD4 (Homo sapiens, UniProt O60885); assay: TR-FRET bromodomain binding assay, BRD4 BD1; settings: TR-FRET assay protocol (A-G, compound concentration range); Ki calculated from IC50, probe Kd and probe concentration; read-out: TR-FRET Binding Ki: BRD4 (BDI_K57-E168)
# T2 construct: His-tagged first (BD1: amino acids K57-E168)
# How it was run: as §1
Structure (SMILES),Ki [1] [nM],Ki [2] [nM]
"Cn1cc(-c2cc(NS(C)(=O)=O)ccc2Oc2ccc(F)cc2F)c(Cl)cc1=O [Example 269, N-[3-(4-chloro-1-methyl-6-oxo-1,6-dihydropyridin-3-yl)-4-(2,4-difluorophenoxy)phenyl]methanesulfonamide]",204,246
"CNC(=O)c1cc(=O)n(C)cc1-c1cc(NS(C)(=O)=O)ccc1Oc1ccc(F)cc1F [Example 276, 5-{2-(2,4-difluorophenoxy)-5-[(methylsulfonyl)amino]phenyl}-N,1-dimethyl-2-oxo-1,2-dihydropyridine-4-carboxamide]",570,916
"Cn1cc(-c2cc(NS(C)(=O)=O)ccc2Oc2ccc(F)cc2F)cc(Cl)c1=O [Example 282, N-[3-(5-chloro-1-methyl-6-oxo-1,6-dihydropyridin-3-yl)-4-(2,4-difluorophenoxy)phenyl]methanesulfonamide]",99.7,20.4
"CCS(=O)(=O)Nc1ccc(Oc2ccc(F)cc2F)c(-c2cn(C)c(=O)cc2OCCN(C)C)c1 [Example 288, N-(4-(2,4-difluorophenoxy)-3-(4-(2-(dimethylamino)ethoxy)-1-methyl-6-oxo-1,6-dihydropyridin-3-yl)phenyl)ethanesulfonamide]",551,190
"CCOc1cc(=O)n(C)cc1-c1cc(NC(=O)CC(C)(C)C)ccc1Oc1ccc(F)cc1F [Example 296, N-[4-(2,4-difluorophenoxy)-3-(4-ethoxy-1-methyl-6-oxo-1,6-dihydropyridin-3-yl)phenyl]-3,3-dimethylbutanamide]",104,195
"CCOc1cc(=O)n(C)cc1-c1cc(NC(=O)c2ccc(OC(C)C)cc2)ccc1Oc1ccc(F)cc1F [Example 301, N-[4-(2,4-difluorophenoxy)-3-(4-ethoxy-1-methyl-6-oxo-1,6-dihydropyridin-3-yl)phenyl]-4-(propan-2-yloxy)benzamide]",55.6,61.8
"CCOc1cc(=O)n(C)cc1-c1cc(NC(=O)c2ccc(N(CC)CC)cc2)ccc1Oc1ccc(F)cc1F [Example 303, 4-(diethylamino)-N-[4-(2,4-difluorophenoxy)-3-(4-ethoxy-1-methyl-6-oxo-1,6-dihydropyridin-3-yl)phenyl]benzamide]",201,233
"CCOc1cc(=O)n(C)cc1-c1cc(NCC(C)(C)C)ccc1Oc1ccc(F)cc1F [Example 305, 5-{2-(2,4-difluorophenoxy)-5-[(2,2-dimethylpropyl)amino]phenyl}-4-ethoxy-1-methylpyridin-2(1H)-one]",271,557
"CCOc1cc(=O)n(C)cc1-c1cc(NCCC(C)(C)C)ccc1Oc1ccc(F)cc1F [Example 306, 5-{2-(2,4-difluorophenoxy)-5-[(3,3-dimethylbutyl)amino]phenyl}-4-ethoxy-1-methylpyridin-2(1H)-one]",349,542
"CCOc1cc(=O)n(C)cc1-c1cc(NS(=O)(=O)c2ccc(S(C)(=O)=O)cc2)ccc1Oc1ccc(F)cc1F [Example 307, N-[4-(2,4-difluorophenoxy)-3-(4-ethoxy-1-methyl-6-oxo-1,6-dihydropyridin-3-yl)phenyl]-4-(methylsulfonyl)benzenesulfonamide]",41.6,94.9
"CCOc1cc(=O)n(C)cc1-c1cc(NS(=O)(=O)c2ccc(OC(F)(F)F)cc2)ccc1Oc1ccc(F)cc1F [Example 308, N-[4-(2,4-difluorophenoxy)-3-(4-ethoxy-1-methyl-6-oxo-1,6-dihydropyridin-3-yl)phenyl]-4-(trifluoromethoxy)benzenesulfonamide]",65.9,318
"CCOc1cc(=O)n(C)cc1-c1cc(NS(=O)(=O)c2ccc(-c3ccccc3)cc2)ccc1Oc1ccc(F)cc1F [Example 309, N-[4-(2,4-difluorophenoxy)-3-(4-ethoxy-1-methyl-6-oxo-1,6-dihydropyridin-3-yl)phenyl]biphenyl-4-sulfonamide]",151,359
"CCOc1cc(=O)n(C)cc1-c1cc(NS(=O)(=O)C[C@]23CC[C@H](CC2=O)C3(C)C)ccc1Oc1ccc(F)cc1F [Example 310, N-[4-(2,4-difluorophenoxy)-3-(4-ethoxy-1-methyl-6-oxo-1,6-dihydropyridin-3-yl)phenyl]-1-[(1S,4R)-7,7-dimethyl-2-oxobicyclo[2.2.1]hept-1-yl]methanesulfonamide]",38.9,200
"Cc1cc(-c2ccc(-c3ccc(=O)n(C)c3)c(OCC3CC3)c2)[nH]n1 [Example 312, 5-[2-(cyclopropylmethoxy)-4-(3-methyl-1H-pyrazol-5-yl)phenyl]-1-methylpyridin-2(1H)-one]",2150,353
"CCS(=O)(=O)c1ccc(Oc2ccccc2C#CCO)c(-c2cn(C)c(=O)cc2Cl)c1 [Example 314, 4-chloro-5-{5-(ethylsulfonyl)-2-[2-(3-hydroxyprop-1-yn-1-yl)phenoxy]phenyl}-1-methylpyridin-2(1H)-one]",229,642
"CCS(=O)(=O)c1ccc(Oc2ccc(F)cc2F)c(-c2cn(C)c(=O)cc2Oc2ccc(F)cc2F)c1 [Example 317, 4-(2,4-difluorophenoxy)-5-[2-(2,4-difluorophenoxy)-5-(ethylsulfonyl)phenyl]-1-methylpyridin-2(1H)-one]",182,377

# Continued, values first:
Ki [1] [nM],Ki [2] [nM],Structure (SMILES)
672,412,"CC(C)Cn1cc(-c2cc(=O)n(C)nc2-c2ccccc2Oc2ccccc2)cn1 [Example 206, 2-methyl-5-[1-(2-methylpropyl)-1H-pyrazol-4-yl]-6-(2-phenoxyphenyl)pyridazin-3(2H)-one]"
11800,7020,"Cc1ccncc1-c1cc(=O)n(C)nc1-c1ccccc1Oc1ccccc1 [Example 207, 2-methyl-5-(4-methylpyridin-3-yl)-6-(2-phenoxyphenyl)pyridazin-3(2H)-one]"
1510,901,"Cn1nc(-c2ccccc2Oc2ccccc2)c(-c2ccc3c(ccn3C)c2)cc1=O [Example 208, 2-methyl-5-(1-methyl-1H-indol-5-yl)-6-(2-phenoxyphenyl)pyridazin-3(2H)-one]"
8480,> 5490,"CN(C)c1cccc(-c2cc(=O)n(C)nc2-c2ccccc2Oc2ccccc2)c1 [Example 209, 5-[3-(dimethylamino)phenyl]-2-methyl-6-(2-phenoxyphenyl)pyridazin-3(2H)-one]"
15200,9870,"COc1ccc(F)c(-c2cc(=O)n(C)nc2-c2ccccc2Oc2ccccc2)c1 [Example 210, 5-(2-fluoro-5-methoxyphenyl)-2-methyl-6-(2-phenoxyphenyl)pyridazin-3(2H)-one]"
1520,2150,"Cc1ccc(-c2cc(=O)n(C)nc2-c2ccccc2Oc2ccccc2)o1 [Example 211, 2-methyl-5-(5-methylfuran-2-yl)-6-(2-phenoxyphenyl)pyridazin-3(2H)-one]"
117,89.8,"CCn1cc(-c2cc(=O)n(C)nc2-c2ccccc2Oc2ccccc2)cn1 [Example 212, 5-(1-ethyl-1H-pyrazol-4-yl)-2-methyl-6-(2-phenoxyphenyl)pyridazin-3(2H)-one]"
15200,> 13000,"COc1cnccc1-c1cc(=O)n(C)nc1-c1ccccc1Oc1ccccc1 [Example 213, 5-(3-methoxypyridin-4-yl)-2-methyl-6-(2-phenoxyphenyl)pyridazin-3(2H)-one]"
10400,> 13000,"Cn1nc(-c2ccccc2Oc2ccccc2)c(-c2cc3ccccc3n2C)cc1=O [Example 214, 2-methyl-5-(1-methyl-1H-indol-2-yl)-6-(2-phenoxyphenyl)pyridazin-3(2H)-one]"
462,719,"CN(C)c1cncc(-c2cc(=O)n(C)nc2-c2ccccc2Oc2ccccc2)c1 [Example 216, 5-[5-(dimethylamino)pyridin-3-yl]-2-methyl-6-(2-phenoxyphenyl)pyridazin-3(2H)-one]"
1360,6840,"Cn1nc(-c2ccccc2Cc2ccccc2)ccc1=O [Example 222, 6-(2-benzylphenyl)-2-methylpyridazin-3(2H)-one]"
3270,324,"Cn1cc(-c2cc(Nc3ccccn3)ccc2Oc2ccccc2)ccc1=O [Example 254, 1-methyl-5-[2-phenoxy-5-(pyridin-2-ylamino)phenyl]pyridin-2(1H)-one]"
93,275,"CCOc1cc(=O)n(C)cc1-c1cc(NC(=O)C2CCN(c3ccccc3)C2=O)ccc1Oc1ccc(F)cc1F (stereo not shown) [Example 295, N-[4-(2,4-difluorophenoxy)-3-(4-ethoxy-1-methyl-6-oxo-1,6-dihydropyridin-3-yl)phenyl]-2-oxo-1-phenylpyrrolidine-3-carboxamide]"
35.2,149,"CCOc1cc(=O)n(C)cc1-c1cc(NC(=O)C2(c3ccccc3)CC2)ccc1Oc1ccc(F)cc1F [Example 299, N-[4-(2,4-difluorophenoxy)-3-(4-ethoxy-1-methyl-6-oxo-1,6-dihydropyridin-3-yl)phenyl]-1-phenylcyclopropanecarboxamide]"
47.2,209,"CCOc1cc(=O)n(C)cc1-c1cc(NC(=O)c2ccccc2CCc2ccccc2)ccc1Oc1ccc(F)cc1F [Example 302, N-[4-(2,4-difluorophenoxy)-3-(4-ethoxy-1-methyl-6-oxo-1,6-dihydropyridin-3-yl)phenyl]-2-(2-phenylethyl)benzamide]"
359,195,"CCOc1cc(=O)n(C)cc1-c1cc(NC(=O)c2ccc(-c3ccccc3)cc2)ccc1Oc1ccc(F)cc1F [Example 304, N-[4-(2,4-difluorophenoxy)-3-(4-ethoxy-1-methyl-6-oxo-1,6-dihydropyridin-3-yl)phenyl]biphenyl-4-carboxamide]"
